Laboratory results: patent publication US20250214968A1, “Novel Salt of GLP-1 Receptor Agonist Compound, Preparation Method Thereof and Pharmaceutical Composition Comprising Thereof” (Ildong Pharmaceutical Co., Ltd., priority 2022, published 2025)
In brackets after ≈: the same amount, converted by molar mass. Structures can show the parent of a compound that is named as a salt.

Legend:
Format in all cases: physicochemical
[1] = Hygroscopicity test, European Pharmacopoeia conditions, 25° C. and 80% RH; conditions: stored 24 hours at 25° C., 80% RH (EP conditions)
Protocol: Under the hygroscopicity test conditions of the European Pharmacopoeia (EP), the tromethamine salt prepared in Example 3 and the free base prepared in Comparative Example 1 were stored for 24 hours at a temperature of 25° C. and a relative humidity of 80%, and then the mass change of the sample due to moisture sorption was measured.

[2] = Thermogravimetric (TGA) analysis; conditions: TGA 20° C. to 350° C., 10° C./min, nitrogen
Protocol: Thermogravimetric (TGA) analysis was performed on the tromethamine salt prepared in Example 3, the free base prepared in Comparative Example 1, the L-arginine salt prepared in Comparative Example 2, the meglumine salt prepared in Comparative Example 3, and the potassium salt prepared in Comparative Example 4. Thermogravimetric analysis was performed from 20° C. to 350° C. at a heating rate of 10° C./min under nitrogen conditions using TGA Q50 manufactured by TA Instruments, Inc. The weight loss at about 170° C. or less for each salt was measured, and results thereof are shown in FIG. 2 (tromethamine salt), FIG. 3 (free base), FIG. 6 (L-arginine salt), FIG. 9 (meglumine salt), and 12 (potassium salt), and summarized in Table 4 below.

[3] = Drug stability evaluation under stress condition (80° C., open)
Protocol: The free base and the tromethamine salt of (S)-2-((4-(6-((5-cyanopyridin-2-yl)methoxy)pyridin-2-yl)piperazin-1-yl)methyl)-1-(oxetan-2-ylmethyl)-1H-benzo[d]imidazol-6-carboxylic acid were weighed into each vial and stored under stress conditions to investigate stability.
The stress conditions are as follows: • high temperature open room condition: 80° C.;
Samples were analyzed by XRPD and HPLC at the onset (Day 0) and week 1 of storage.

[4] = Solubility in water and bio-relevant media; conditions: for Final pH: after 24 hours stirring; for solubility at 24 h: thermodynamic from solid, room temperature, 2 mg/mL loading
Protocol: Solubility in water and bio-relevant media, i.e., stimulated gastric fluid (SGF), fasted state simulated intestinal fluid (FaSSIF), and fed state simulated intestinal fluid (FeSSIF) of the free base and the tromethamine salt of (S)-2-((4-(6-((5-cyanopyridin-2-yl)methoxy)pyridin-2-yl)piperazin-1-yl)methyl)-1-(oxetan-2-ylmethyl)-1H-benzo[d]imidazol-6-carboxylic acid was confirmed.
Buffers for the bio-relevant media were prepared as follows.
Water: Laboratory Milli-Q purified water.
SGF (Stimulated Gastric Fluid): 2.0 g of sodium chloride and 7 mL of hydrochloric acid dissolved in 1000 mL of water was used.
FaSSIF (Fasted State Simulated Intestinal Fluid): A commercial product purchased from Bio-Relevant Company and manufactured according to instructions was used.
FeSSIF (Fed State Simulated Intestinal Fluid): A commercial product purchased from Bio-Relevant Company and prepared according to instructions was used.
For the experiment, about 2 mg of compound (2 mg as free base form) was weighed into each glass vial and then 1 mL of medium was added (final concentration of 2 mg/mL). Then, the sample was continuously stirred for 24 hours in a magnetic stirrer at a speed of […] at room temperature. Then, the pH was measured and the mixture was filtered using MultiScreen®HTS-HV 96-well plate (Merck; 0.45 μm hydrophilic low protein binding Durapore® membrane). Solubility was analyzed using HPLC.

[5] = Hygroscopicity test by DVS, 25° C. and 90% RH; conditions: moisture sorption
Protocol: Samples in amounts of about 5 to 25 mg were tested for moisture sorption/desorption profiles at 25° C. under a 0% to 90% relative humidity (RH) cycle according to the pa-rameters in Table 2 below using DVS Intrinsic 1 manufactured by Surface Measurement System Ltd.
Hygroscopicity was measured for the tromethamine salt prepared in Example 3, the L-arginine salt prepared in Comparative Example 2, the meglumine salt prepared in Comparative Example 3, and the potassium salt prepared in Comparative Example 4. Results thereof are shown in FIGS. 14 to 17, respectively, and the results of the weight percent gain according to moisture sorption are shown in Table 6 below.

[6] = XRPD analysis of crystal form under various relative humidity conditions; conditions: 20° C.
Protocol: The X-ray powder diffraction (XRPD) pattern was measured using DYY884-AERIS-300 manufactured by PANalytical company, and analyzed with a step size of about 0.02° over the range of about 2° to 45° in the […].
The XRPD analysis of the crystalline form 1 of the tromethamine salt of (S)-2-((4-(6-((5-cyanopyridin-2-yl)methoxy)pyridin-2-yl)piperazin-1-yl)methyl)-1-(oxetan-2-ylmethyl)-1H-benzo[d]imidazol-6-carboxylic acid was performed under the conditions of varying relative humidity from 15% RH to 90% RH at 20° C., and the changes in the crystalline form according to the relative humidity were confirmed.

[7] = 80° C. (Week 1), high temperature open
[8] = simulated gastric fluid, SGF (pH 2.0)

| Compound | Weight percent gain (%) [1] | Weight loss (%) at about 170° C. or less [2] | Chemical stability by HPLC purity % [3, 7] | Chemical stability by HPLC purity % ([3]; Onset (Day 0)) | Final pH ([4]; FaSSIF (pH 6.5)) | Final pH ([4]; FeSSIF (pH 5.8)) | Final pH ([4]; SGF (pH 2.0)) | Final pH ([4]; Water) | solubility at 24 h [4, 8] | solubility at 24 h ([4]; FaSSIF (pH 6.5)) | solubility at 24 h ([4]; FeSSIF (pH 5.8)) | solubility at 24 h ([4]; Water) | Weight percent gain (%) [5] | further results |
| --- | --- | --- | --- | --- | --- | --- | --- | --- | --- | --- | --- | --- | --- | --- |
| N#Cc1ccc(COc2cccc(N3CCN(Cc4nc5ccc(C(=O)O)cc5n4C[C@@H]4CCO4)CC3)n2)nc1 [Comparative Example 1, (S)-2-((4-(6-((5-cyanopyridin-2-yl)methoxy)pyridin-2-yl)piperazin-1-yl)methyl)-1-(oxetan-2-ylmethyl)-1H-benzo[d]imidazol-6-carboxylic acid] | 2.7% | 3.323% | 96.70% | 97.84% | 6.49 | 5.70 | 1.74 | 6.64 | 850 µg/mL (≈ 1580 µM) | 160 µg/mL (≈ 297 µM) | 63 µg/mL (≈ 117 µM) | 106 µg/mL (≈ 196 µM) | – | – |
| N#Cc1ccc(COc2cccc(N3CCN(Cc4nc5ccc(C(=O)O)cc5n4C[C@@H]4CCO4)CC3)n2)nc1.N=C(N)NCCC[C@H](N)C(=O)O [Comparative Example 2, L-arginine salt of (S)-2-((4-(6-((5-cyanopyridin-2-yl)methoxy)pyridin-2-yl)piperazin-1-yl)methyl)-1-(oxetan-2-ylmethyl)-1H-benzo[d]imidazol-6-carboxylic acid] | – | 7.368% | – | – | – | – | – | – | – | – | – | – | 6.84% | – |
| CNC[C@H](O)[C@@H](O)[C@H](O)[C@H](O)CO.N#Cc1ccc(COc2cccc(N3CCN(Cc4nc5ccc(C(=O)O)cc5n4C[C@@H]4CCO4)CC3)n2)nc1 [Comparative Example 3, meglumine salt of (S)-2-((4-(6-((5-cyanopyridin-2-yl)methoxy)pyridin-2-yl)piperazin-1-yl)methyl)-1-(oxetan-2-ylmethyl)-1H-benzo[d]imidazol-6-carboxylic acid] | – | 2.8132% | – | – | – | – | – | – | – | – | – | – | 17.77% | – |
| N#Cc1ccc(COc2cccc(N3CCN(Cc4nc5ccc(C(=O)[O-])cc5n4C[C@@H]4CCO4)CC3)n2)nc1.[K+] [Comparative Example 4, potassium salt of (S)-2-((4-(6-((5-cyanopyridin-2-yl)methoxy)pyridin-2-yl)piperazin-1-yl)methyl)-1-(oxetan-2-ylmethyl)-1H-benzo[d]imidazol-6-carboxylic acid] | – | 4.284% | – | – | – | – | – | – | – | – | – | – | 5.97% | – |
| N#Cc1ccc(COc2cccc(N3CCN(Cc4nc5ccc(C(=O)O)cc5n4C[C@@H]4CCO4)CC3)n2)nc1 [Example 3, tromethamine salt of (S)-2-((4-(6-((5-cyanopyridin-2-yl)methoxy)pyridin-2-yl)piperazin-1-yl)methyl)-1-(oxetan-2-ylmethyl)-1H-benzo[d]imidazol-6-carboxylic acid] | 0.22% | 0.1207% | 97.32% | 97.99% | 6.50 | 5.85 | 1.90 | 7.21 | 710 µg/mL | > 2000 µg/mL | 336 µg/mL | > 2000 µg/mL | 1.44% | Crystalline Form ([6]; 15% RH, during desorption): Form 1; Crystalline Form ([6]; 15% RH, increasing humidity): 1; Crystalline Form ([6]; 20% RH, increasing humidity): 1; Crystalline Form ([6]; 25% RH, increasing humidity): 1; Crystalline Form ([6]; 30% RH, during desorption): Form 1; Crystalline Form ([6]; 30% RH, increasing humidity): 1; Crystalline Form ([6]; 35% RH, increasing humidity): 1; Crystalline Form ([6]; 40% RH, during desorption): Form 1; Crystalline Form ([6]; 40% RH, increasing humidity): 1; Crystalline Form ([6]; 45% RH, increasing humidity): 1; Crystalline Form ([6]; 50% RH, during desorption): intermediate; Crystalline Form ([6]; 50% RH, increasing humidity): 1; Crystalline Form ([6]; 55% RH, increasing humidity): 1A; Crystalline Form ([6]; 60% RH, increasing humidity): 1A; change in the XRPD pattern ([3]; harsh conditions, 80° C., week 1): did not show any change in the XRPD pattern; purity change rate ([3]; harsh conditions, 80° C., week 1 vs day 0): less than 1%; Weight percent gain (%) ([5]; listed as tromethamine salt): about 1.44% |
